Columns and labels:
[1] = biological target: CDK2/Cyclin E1(14-475) (Homo sapiens, UniProt P24941); experiment: Caliper LabChip EZ Reader mobility shift assay, inhibition of CDK2/Cyclin E1 activity; format: biochemical; conditions: class symbols A-D
How it was run: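 Mobility-shift readout of fluorescent peptide (1.5 μM final) phosphorylation by 2.5 nM CDK2/Cyclin E1(14-475) at 100 μM ATP, pH 7.5. Compounds pre-incubated 30 min with enzyme before substrate addition; 100-min reaction halted by EDTA, normalized % activity fitted to four-parameter curve for IC50.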

[2] = system: Kuramochi cells; experiment: BrdU cell proliferation assay (colorimetric ELISA), Kuramochi cells; format: cell-based; conditions: class symbols A-D
How it was run: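 Proliferation was read as BrdU incorporation: a 1 h pulse, then fixation and peroxidase-antibody ELISA at 450 nm, with values normalized to DMSO after empty-well subtraction. Treatment lasted 4 days on Kuramochi cells seeded at 2,000/well, using four 3-fold compound dilutions from 10 mM stocks. RB^KO Kuramochi cells were run in parallel for specificity.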

CNC(=O)[C@H](CCCc1ccc(F)cc1)NC(=O)C1CN(C(=O)Cc2c[nH]c3cc(Cl)ccc23)CC2CN(C(=O)c3ccc(OC(C)C)c(OC)c3)CC21 (stereo partly shown) [I-144]
IC50 [1]: 0.5 to 5 µM | IC50 [2]: > 10 µM

COc1cc(C(=O)N2CC3CN(C(=O)Cc4c[nH]c5cc(Cl)ccc45)CC(C(=O)NC(CCCc4ccccc4)c4ncco4)C3C2)ccc1OC(C)C (stereo not shown) [I-149]
IC50 [1]: 0.5 to 5 µM | IC50 [2]: > 10 µM

COc1cc(C(=O)N2CC3CN(C(=O)Cc4c[nH]c5cc(Cl)ccc45)CC(C(=O)NC(CCCc4ccccc4)c4ccccn4)C3C2)ccc1OC(C)C (stereo not shown) [I-150]
IC50 [1]: 0.5 to 5 µM | IC50 [2]: 5 to 10 µM

COc1cc(C(=O)N2CC3CN(C(=O)Cc4c[nH]c5cc(Cl)ccc45)CC(C(=O)NC(CCCc4ccccc4)c4ncccn4)C3C2)ccc1OC(C)C (stereo not shown) [I-151]
IC50 [1]: ≤ 0.5 µM | IC50 [2]: 0.5 to 5 µM

CNC(=O)[C@H](CCCc1ccccc1)NC(=O)C1CN(C(=O)Cc2ccccc2)CC2CN(C(=O)c3ccc(OC(C)C)c(OC)c3)CC21 (stereo partly drawn) [I-154, 2-(4-isopropoxy-3-methoxybenzoyl)-N—((S)-1-(methylamino)-1-oxo-5-phenylpentan-2-yl)-5-(2-phenylacetyl)octahydro-1H-pyrrolo[3,4-c]pyridine-7-carboxamide]
IC50 [1]: > 10 µM | IC50 [2]: > 10 µM

CNC(=O)[C@H](CCCc1ccccc1)NC(=O)C1CN(C(=O)Cc2ccccn2)CC2CN(C(=O)c3ccc(OC(C)C)c(OC)c3)CC21 (stereo partly shown) [I-155]
IC50 [1]: > 10 µM | IC50 [2]: > 10 µM

CNC(=O)[C@H](CCCc1ccccc1)NC(=O)C1CN(C(=O)Cn2cnc3cc(Cl)ccc32)CC2CN(C(=O)c3ccc(OC(C)C)c(OC)c3)CC21 (stereo partly shown) [I-156]
IC50 [1]: 0.5 to 5 µM | IC50 [2]: > 10 µM

CNC(=O)[C@H](CCCc1ccccc1)NC(=O)C1CN(C(=O)CCc2c[nH]c3ccccc23)CC2CN(C(=O)c3ccc(OC(C)C)c(OC)c3)CC21 (stereo partly shown) [I-157]
IC50 [1]: > 10 µM | IC50 [2]: > 10 µM

CNC(=O)[C@H](CCCc1ccccc1)NC(=O)C1CN(C(=O)c2ccc3ncccc3c2)CC2CN(C(=O)c3ccc(OC(C)C)c(OC)c3)CC21 (stereo partly shown) [I-158]
IC50 [1]: > 10 µM | IC50 [2]: > 10 µM

CNC(=O)[C@H](CCCc1ccccc1)NC(=O)C1CN(C(=O)c2cn(C)c3ccccc23)CC2CN(C(=O)c3ccc(OC(C)C)c(OC)c3)CC21 (stereo partly shown) [I-159]
IC50 [1]: > 10 µM | IC50 [2]: > 10 µM

CNC(=O)[C@H](CCCc1ccccc1)NC(=O)C1CN(C(=O)c2cc3ccccc3cn2)CC2CN(C(=O)c3ccc(OC(C)C)c(OC)c3)CC21 (stereo partly shown) [I-160]
IC50 [1]: > 10 µM | IC50 [2]: > 10 µM

CNC(=O)[C@H](CCCc1ccccc1)NC(=O)C1CN(C(=O)Cn2ccc3ccccc32)CC2CN(C(=O)c3ccc(OC(C)C)c(OC)c3)CC21 (stereo partly shown) [I-161]
IC50 [1]: > 10 µM | IC50 [2]: > 10 µM

CNC(=O)[C@H](CCCc1ccccc1)NC(=O)C1CN(C(=O)c2cc3cc(C)ccc3[nH]2)CC2CN(C(=O)c3ccc(OC(C)C)c(OC)c3)CC21 (stereo partly shown) [I-162]
IC50 [1]: > 10 µM | IC50 [2]: > 10 µM

CNC(=O)[C@H](CCCc1ccccc1)NC(=O)C1CN(C(=O)c2cnc(OC)cn2)CC2CN(C(=O)c3ccc(OC(C)C)c(OC)c3)CC21 (stereo partly shown) [I-163]
IC50 [1]: > 10 µM | IC50 [2]: > 10 µM

CNC(=O)[C@H](CCCc1ccccc1)NC(=O)C1CN(C(=O)CCc2ccccn2)CC2CN(C(=O)c3ccc(OC(C)C)c(OC)c3)CC21 (stereo partly shown) [I-164]
IC50 [1]: > 10 µM | IC50 [2]: > 10 µM

CNC(=O)[C@H](CCCc1ccccc1)NC(=O)C1CN(C(=O)c2ccc3nccnc3c2)CC2CN(C(=O)c3ccc(OC(C)C)c(OC)c3)CC21 (stereo partly shown) [I-165]
IC50 [1]: > 10 µM | IC50 [2]: > 10 µM

CNC(=O)[C@H](CCCc1ccccc1)NC(=O)C1CN(C(=O)c2coc(C)n2)CC2CN(C(=O)c3ccc(OC(C)C)c(OC)c3)CC21 (stereo partly shown) [I-166]
IC50 [1]: > 10 µM | IC50 [2]: > 10 µM

CNC(=O)[C@H](CCCc1ccccc1)NC(=O)C1CN(C(=O)Cc2ccc3ncccc3c2)CC2CN(C(=O)c3ccc(OC(C)C)c(OC)c3)CC21 (stereo partly shown) [I-167]
IC50 [1]: > 10 µM | IC50 [2]: > 10 µM

CNC(=O)[C@H](CCCc1ccccc1)NC(=O)C1CN(C(=O)c2cc(-c3ccccc3)n[nH]2)CC2CN(C(=O)c3ccc(OC(C)C)c(OC)c3)CC21 (stereo partly shown) [I-168]
IC50 [1]: > 10 µM | IC50 [2]: > 10 µM

CNC(=O)[C@H](CCCc1ccccc1)NC(=O)C1CN(C(=O)C2(C)CCOCC2)CC2CN(C(=O)c3ccc(OC(C)C)c(OC)c3)CC21 (stereo partly shown) [I-169]
IC50 [1]: > 10 µM | IC50 [2]: > 10 µM

CNC(=O)[C@H](CCCc1ccccc1)NC(=O)C1CN(C(=O)c2cc3cccc(C)c3[nH]2)CC2CN(C(=O)c3ccc(OC(C)C)c(OC)c3)CC21 (stereo partly shown) [I-170]
IC50 [1]: > 10 µM | IC50 [2]: > 10 µM

CNC(=O)[C@H](CCCc1ccccc1)NC(=O)C1CN(C(=O)c2[nH]ccc2C)CC2CN(C(=O)c3ccc(OC(C)C)c(OC)c3)CC21 (stereo partly shown) [I-171]
IC50 [1]: > 10 µM | IC50 [2]: > 10 µM

CNC(=O)[C@H](CCCc1ccccc1)NC(=O)C1CN(C(=O)c2c[nH]c3cc(Cl)ccc23)CC2CN(C(=O)c3ccc(OC(C)C)c(OC)c3)CC21 (stereo partly shown) [I-172]
IC50 [1]: > 10 µM | IC50 [2]: > 10 µM

CNC(=O)[C@H](CCCc1ccccc1)NC(=O)C1CN(C(=O)Cc2c[nH]c3ccc(F)cc23)CC2CN(C(=O)c3ccc(OC(C)C)c(OC)c3)CC21 (stereo partly shown) [I-173]
IC50 [1]: 0.5 to 5 µM | IC50 [2]: > 10 µM

CNC(=O)[C@H](CCCc1ccccc1)NC(=O)C1CN(C(=O)Cc2c[nH]c3cc(F)ccc23)CC2CN(C(=O)c3ccc(OC(C)C)c(OC)c3)CC21 (stereo partly shown) [I-174]
IC50 [1]: 0.5 to 5 µM | IC50 [2]: > 10 µM

CNC(=O)[C@H](CCCc1ccccc1)NC(=O)C1CN(C(=O)Cc2c[nH]c3c(C)cccc23)CC2CN(C(=O)c3ccc(OC(C)C)c(OC)c3)CC21 (stereo partly shown) [I-175]
IC50 [1]: > 10 µM | IC50 [2]: > 10 µM

CNC(=O)[C@H](CCCc1ccccc1)NC(=O)C1CN(C(=O)Cc2c[nH]c3cccc(OC)c23)CC2CN(C(=O)c3ccc(OC(C)C)c(OC)c3)CC21 (stereo partly shown) [I-176]
IC50 [1]: > 10 µM | IC50 [2]: > 10 µM

CNC(=O)[C@H](CCCc1ccccc1)NC(=O)C1CN(C(=O)C(C)(C)c2c[nH]c3ccccc23)CC2CN(C(=O)c3ccc(OC(C)C)c(OC)c3)CC21 (stereo partly shown) [I-177]
IC50 [1]: > 10 µM | IC50 [2]: > 10 µM

CNC(=O)[C@H](CCCc1ccccc1)NC(=O)C1CN(C(=O)Cc2cccc3[nH]ccc23)CC2CN(C(=O)c3ccc(OC(C)C)c(OC)c3)CC21 (stereo partly shown) [I-178]
IC50 [1]: > 10 µM | IC50 [2]: > 10 µM

CNC(=O)[C@H](CCCc1ccccc1)NC(=O)C1CN(C(=O)Cc2c[nH]c3ncccc23)CC2CN(C(=O)c3ccc(OC(C)C)c(OC)c3)CC21 (stereo partly shown) [I-179]
IC50 [1]: > 10 µM | IC50 [2]: > 10 µM

CNC(=O)[C@H](CCCc1ccccc1)NC(=O)C1CN(C(=O)c2cccc3[nH]ccc23)CC2CN(C(=O)c3ccc(OC(C)C)c(OC)c3)CC21 (stereo partly shown) [I-180]
IC50 [1]: > 10 µM | IC50 [2]: > 10 µM

CNC(=O)[C@H](CCCc1ccccc1)NC(=O)C1CN(C(=O)c2cnc3ccccc3c2)CC2CN(C(=O)c3ccc(OC(C)C)c(OC)c3)CC21 (stereo partly shown) [I-181]
IC50 [1]: > 10 µM | IC50 [2]: > 10 µM

CNC(=O)[C@H](CCCc1ccccc1)NC(=O)C1CN(C(=O)c2n[nH]c3ccccc23)CC2CN(C(=O)c3ccc(OC(C)C)c(OC)c3)CC21 (stereo partly shown) [I-182]
IC50 [1]: > 10 µM | IC50 [2]: > 10 µM

CNC(=O)[C@H](CCCc1ccccc1)NC(=O)C1CN(C(=O)c2cc(C)[nH]n2)CC2CN(C(=O)c3ccc(OC(C)C)c(OC)c3)CC21 (stereo partly shown) [I-183]
IC50 [1]: > 10 µM | IC50 [2]: > 10 µM

CNC(=O)[C@H](CCCc1ccccc1)NC(=O)C1CN(C(=O)c2ccc(C)cn2)CC2CN(C(=O)c3ccc(OC(C)C)c(OC)c3)CC21 (stereo partly shown) [I-184]
IC50 [1]: > 10 µM | IC50 [2]: > 10 µM

CNC(=O)[C@H](CCCc1ccccc1)NC(=O)C1CN(C(=O)c2sc(C)nc2C)CC2CN(C(=O)c3ccc(OC(C)C)c(OC)c3)CC21 (stereo partly shown) [I-185]
IC50 [1]: > 10 µM | IC50 [2]: > 10 µM

CNC(=O)[C@H](CCCc1ccccc1)NC(=O)C1CN(C(=O)Cc2nnn[nH]2)CC2CN(C(=O)c3ccc(OC(C)C)c(OC)c3)CC21 (stereo partly shown) [I-186]
IC50 [1]: > 10 µM | IC50 [2]: > 10 µM

CNC(=O)[C@H](CCCc1ccccc1)NC(=O)C1CN(C(=O)c2ocnc2C)CC2CN(C(=O)c3ccc(OC(C)C)c(OC)c3)CC21 (stereo partly shown) [I-187]
IC50 [1]: > 10 µM | IC50 [2]: > 10 µM

CNC(=O)[C@H](CCCc1ccccc1)NC(=O)C1CN(C(=O)c2oc(C)nc2C)CC2CN(C(=O)c3ccc(OC(C)C)c(OC)c3)CC21 (stereo partly shown) [I-188]
IC50 [1]: > 10 µM | IC50 [2]: > 10 µM

CNC(=O)[C@H](CCCc1ccccc1)NC(=O)C1CN(C(=O)c2ccc(C)[nH]2)CC2CN(C(=O)c3ccc(OC(C)C)c(OC)c3)CC21 (stereo partly shown) [I-189]
IC50 [1]: > 10 µM | IC50 [2]: > 10 µM

CNC(=O)[C@H](CCCc1ccccc1)NC(=O)C1CN(C(=O)c2c[nH]c3ccc(F)cc23)CC2CN(C(=O)c3ccc(OC(C)C)c(OC)c3)CC21 (stereo partly shown) [I-190]
IC50 [1]: > 10 µM | IC50 [2]: > 10 µM

CNC(=O)[C@H](CCCc1ccccc1)NC(=O)C1CN(C(=O)c2c[nH]c3c(C)cccc23)CC2CN(C(=O)c3ccc(OC(C)C)c(OC)c3)CC21 (stereo partly shown) [I-191]
IC50 [1]: > 10 µM | IC50 [2]: > 10 µM

CNC(=O)[C@H](CCCc1ccccc1)NC(=O)C1CN(C(=O)CCCc2ccccn2)CC2CN(C(=O)c3ccc(OC(C)C)c(OC)c3)CC21 (stereo partly shown) [I-192]
IC50 [1]: > 10 µM | IC50 [2]: > 10 µM

CNC(=O)[C@H](CCCc1ccccc1)NC(=O)C1CN(C(=O)c2ncoc2C)CC2CN(C(=O)c3ccc(OC(C)C)c(OC)c3)CC21 (stereo partly shown) [I-193]
IC50 [1]: > 10 µM | IC50 [2]: > 10 µM

CNC(=O)[C@H](CCCc1ccccc1)NC(=O)C1CN(C(=O)c2ncc(Cl)cn2)CC2CN(C(=O)c3ccc(OC(C)C)c(OC)c3)CC21 (stereo partly shown) [I-196]
IC50 [1]: > 10 µM | IC50 [2]: > 10 µM

CNC(=O)[C@H](CCCc1ccccc1)NC(=O)C1CN(C(=O)c2cc(Cl)[nH]n2)CC2CN(C(=O)c3ccc(OC(C)C)c(OC)c3)CC21 (stereo partly shown) [I-197]
IC50 [1]: > 10 µM | IC50 [2]: > 10 µM

CNC(=O)[C@H](CCCc1ccccc1)NC(=O)C1CN(C(=O)Cc2cc[nH]n2)CC2CN(C(=O)c3ccc(OC(C)C)c(OC)c3)CC21 (stereo partly shown) [I-198]
IC50 [1]: > 10 µM | IC50 [2]: > 10 µM

Source: patent US12053459B2, “CDK2 inhibitors and methods of using the same” (Cedilla Therapeutics, Inc., priority 2021, dated 2024)
